Earlier results as cited in patent publication US20230051463A1, “Methotrexate Dosage Form” (ROS Therapeutics ApS, priority 2020, published 2023).
Read-outs that look alike come from different tables or passages of the source.

Key:
[1] = oral

CN(Cc1cnc2nc(N)nc(N)c2n1)c1ccc(C(=O)N[C@@H](CCC(=O)[O-])C(=O)[O-])cc1.[Na+].[Na+] [Methotrexate disodium]
solubility in water: freely soluble

CN(Cc1cnc2nc(N)nc(N)c2n1)c1ccc(C(=O)N[C@@H](CCC(=O)O)C(=O)O)cc1 [Methotrexate]
solubility in water: practically insoluble

CN(Cc1cnc2nc(N)nc(N)c2n1)c1ccc(C(=O)N[C@@H](CCC(=O)O)C(=O)O)cc1 [Oral MTX]
AUC(0-24) Geometric LS Mean ([1]; Methotrexate 10 mg): 1223.7 ng·h/mL | Cmax Geometric LS Mean ([1]; Methotrexate 10 mg): 247.2 ng/mL | AUC(0-24) Geometric LS Mean ([1]; Methotrexate 15 mg): 1752.0 ng·h/mL | Cmax Geometric LS Mean ([1]; Methotrexate 15 mg): 349.4 ng/mL | AUC(0-24) Geometric LS Mean ([1]; Methotrexate 20 mg): 1927.2 ng·h/mL | Cmax Geometric LS Mean ([1]; Methotrexate 20 mg): 440.4 ng/mL | AUC(0-24) Geometric LS Mean ([1]; Methotrexate 25 mg): 1987.8 ng·h/mL | Cmax Geometric LS Mean ([1]; Methotrexate 25 mg): 423.5 ng/mL
